Earlier results in patent US6733485B1, “Microstimulator-based electrochemotherapy methods and systems” (Advanced Bionics Corporation, priority 2001, dated 2004).
Structures can show the parent of a compound that is named as a salt. Where two headings read alike, the source gives them in different places.

Tests used:
[1] = system: malignant melanoma skin metastases
[2] = system: multicellular prostate tumor spheroids; settings: DC electrical field 500 V/m for 90 seconds
[3] = system: rat and human glioma cells
[4] = in vitro, administered along with electrical stimulation
[5] = system: permeation nodules of head and neck squamous cell carcinomas
[6] = system: HNSCC permeation nodules, salivary cancer, and breast cancer; settings: electrochemotherapy
[7] = system: cutaneous and subcutaneous tumors
[8] = system: subcutaneous metastasis of hypernephroma; settings: three sessions over four weeks, electric pulses 10 minutes after intravenous injection
[9] = system: subcutaneously established colorectal tumor
[10] = system: metastatic lesion of oral fibrosarcoma

N.N.[Cl][Pt][Cl] [cisplatin]
median time to progression ([1]; chemotherapy-treated nodules (cisplatin alone)): four | tumor nodules responded ([1]; cisplatin alone, 18 nodules): 22% | tumor nodules responded ([1]; electrochemotherapy, four weeks after treatment, 27 nodules): 48% | median time to progression ([1]; electrochemotherapy-treated nodules): 21 weeks | platinum bound to DNA, electrochemotherapy versus cisplatin treated tumors (tumors in mice; all time points tested): Approximately two | tumor growth delay (tumors in mice; cisplatin treatment without electric pulses, intratumoral 1-8 mg/kg): up to 20 days | tumor cures (local tumor control plateau) (tumors in mice; electrochemotherapy, 4 mg/kg, eight pulses 100 μsec, 1 Hz, 1040 V): 67%

COc1cccc2c1C(=O)c1c(O)c3c(c(O)c1C2=O)C[C@@](O)(C(=O)CO)C[C@@H]3O[C@H]1C[C@H](N)[C@H](O)[C@H](C)O1 [doxorubicin]
uptake of doxorubicin [2]: did increase their uptake of doxorubicin

N.N.O=C([O-])C1(C(=O)[O-])CCC1.[Pt+2] [carboplatin]
enhancement of cytotoxicity by electric stimulation ([3]; carboplatin: high dose): only slightly enhanced

CC[C@]1(O)C[C@H]2CN(CCc3c([nH]c4ccccc34)[C@@](C(=O)OC)(c3cc4c(cc3OC)N(C=O)[C@H]3[C@@](O)(C(=O)OC)[C@H](OC(C)=O)[C@]5(CC)C=CCN6CC[C@]43[C@@H]65)C2)C1 [vincristine]
enhancement of cytotoxicity by electric stimulation [3]: no electrochemotherapy enhancement

bleomycin
factor by which the dose of bleomycin can be reduced [4]: 100-5000 | side effects ([5]; 10 mg/m^2 intravenous bolus plus electric pulses, eight patients): Neither local nor general side effects were observed | nodules with clinical complete response ([5]; 10 mg/m^2 intravenous bolus, then 4 or 8 cycles of 100 μsec pulses at 1300 V/cm, 40 nodules, within a few days): 57% | effectiveness after intraarterial or intranodular injection [6]: effective | antitumor effects ([6]; seven patients): Clear antitumor effects were obtained | increase of toxicity of bleomycin by electric stimulation (human T98G glioma cells; 8 cycles, 1 Hz square wave, 100 μsecond, 1000 V/cm): more than 1000 fold | increase of toxicity at reduced bleomycin concentration (human T98G glioma cells; bleomycin concentration 100 pg/ml): This increase disappeared | complete responses in nodules ([7]; bleomycin only, no electric pulses): No complete responses | patients responding to the treatment ([7]; bleomycin plus 6-8 pulses, 1300 V/cm, 34 patients): All patients responded | nodules with complete responses ([7]; bleomycin plus electric pulses): 91% | side effects ([7]; bleomycin plus electric pulses): no significant side effects were noted | metastatic nodules or primary tumors with responses ([7]; bleomycin plus electric pulses, within 12 weeks): 142 of 143 | time for which tumor volume was stabilized [8]: 12 months | tumor development ([9]; intratumoral, intravenous or intraperitoneal, 1/50 to 1/2 of LD50, 500 to 2,000 V/cm): Significant suppression of tumor development and even some cures | cures on repeated electrochemotherapy ([9]; lowest dose of bleomycin and lowest electric field intensity, repeated): complete cures of colorectal cancer were achieved in all animals

O=P1(N(CCCl)CCCl)NCCCO1 (centres unmarked) [cyclophosphamide]
effect on tumor growth ([10]; cyclophosphamide injection alone): no significant suppressive effect | tumor size ([10]; intraperitoneal injection followed by local electric pulses, several days after treatment): markedly reduced in size

COc1cc([C@@H]2c3cc4c(cc3[C@@H](O[C@@H]3O[C@@H]5CO[C@@H](C)O[C@H]5[C@H](O)[C@H]3O)[C@H]3COC(=O)[C@H]23)OCO4)cc(OC)c1O [etoposide]
enhancement of cytotoxicity by electric stimulation [3]: no electrochemotherapy enhancement

Cc1ncc(CNC(=O)N(CCCl)N=O)c(N)n1 [nimustine hydrochloride]
enhancement of cytotoxicity by electric stimulation ([3]; carboplatin: high dose): no electrochemotherapy enhancement
